Test results as given in PubChem BioAssay (NCI).
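Assay format: 96-well plates, 48-hour exposure. Abbreviation: GI50, concentration required for 50% inhibition of growth. TGI is the concentration that stops growth completely.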

Experiments:
Assay in all cases: NCI-60 cell line screen, 48 h
NCI-H522 lung = system: NCI-H522 lung
SK-OV-3 ovarian = system: SK-OV-3 ovarian
UACC-257 melanoma = system: UACC-257 melanoma
TK-10 renal = system: TK-10 renal
HCT-116 colon = system: HCT-116 colon
UO-31 renal = system: UO-31 renal
A549 NSCLC = system: A549 NSCLC
SK-MEL-5 melanoma = system: SK-MEL-5 melanoma
ACHN renal = system: ACHN renal
A498 renal = system: A498 renal
HS 578T breast = system: HS 578T breast
SK-MEL-2 melanoma = system: SK-MEL-2 melanoma
MDA-MB-435 = system: MDA-MB-435
RPMI-8226 leukemia = system: RPMI-8226 leukemia
LOX IMVI melanoma = system: LOX IMVI melanoma
SNB-19 CNS = system: SNB-19 CNS
CAKI-1 renal = system: CAKI-1 renal
786-0 renal = system: 786-0 renal
COLO 205 colon = system: COLO 205 colon
NCI/ADR-RES ovarian = system: NCI/ADR-RES ovarian
RXF 393 renal = system: RXF 393 renal
OVCAR-8 ovarian = system: OVCAR-8 ovarian
SR leukemia = system: SR leukemia
MALME-3M melanoma = system: MALME-3M melanoma
UACC-62 melanoma = system: UACC-62 melanoma
SF-268 CNS = system: SF-268 CNS
OVCAR-5 ovarian = system: OVCAR-5 ovarian
MDA-MB-231 breast = system: MDA-MB-231 breast
HL-60(TB) leukemia = system: HL-60(TB) leukemia
NCI-H226 lung = system: NCI-H226 lung
HCT-15 colon = system: HCT-15 colon
SF-295 CNS = system: SF-295 CNS
OVCAR-4 ovarian = system: OVCAR-4 ovarian
EKVX NSCLC = system: EKVX NSCLC
BT-549 breast = system: BT-549 breast
CCRF-CEM leukemia = system: CCRF-CEM leukemia
KM12 colon = system: KM12 colon
U251 CNS = system: U251 CNS
NCI-H460 lung = system: NCI-H460 lung
SF-539 CNS = system: SF-539 CNS
SK-MEL-28 melanoma = system: SK-MEL-28 melanoma
SW-620 colon = system: SW-620 colon
NCI-H23 lung = system: NCI-H23 lung
OVCAR-3 ovarian = system: OVCAR-3 ovarian
DU-145 prostate = system: DU-145 prostate
HOP-92 NSCLC = system: HOP-92 NSCLC
SN12C renal = system: SN12C renal
MOLT-4 leukemia = system: MOLT-4 leukemia
K-562 leukemia = system: K-562 leukemia
T-47D breast = system: T-47D breast
IGROV1 ovarian = system: IGROV1 ovarian
HOP-62 NSCLC = system: HOP-62 NSCLC
SNB-75 CNS = system: SNB-75 CNS
HCC-2998 colon = system: HCC-2998 colon
PC-3 prostate = system: PC-3 prostate
HT29 colon = system: HT29 colon
M14 melanoma = system: M14 melanoma
MCF7 breast = system: MCF7 breast

`O=C(/C=C/c1ccccc1Cl)Nc1ncc(Cc2cc(Cl)ccc2Cl)s1` showed a GI50 (NCI-H522 lung) of 0.7 µM, a TGI (NCI-H522 lung) of 2.56 µM and a GI50 (SK-OV-3 ovarian) of 7.39 µM. For the same compound, the TGI (SK-OV-3 ovarian) was > 100 µM, the GI50 (UACC-257 melanoma) was 9.11 µM and the TGI (UACC-257 melanoma) was > 100 µM. For the same compound, the GI50 (TK-10 renal) was 7.13 µM, the TGI (TK-10 renal) was > 100 µM and the GI50 (HCT-116 colon) was 0.939 µM. For the same compound, the TGI (HCT-116 colon) was > 100 µM, the GI50 (UO-31 renal) was 6.52 µM and the TGI (UO-31 renal) was > 100 µM. For the same compound, the GI50 (A549 NSCLC) was 2.09 µM, the TGI (A549 NSCLC) was > 100 µM and the GI50 (SK-MEL-5 melanoma) was 2.8 µM. The TGI (SK-MEL-5 melanoma) was > 100 µM, the GI50 (ACHN renal) was 8.28 µM and the TGI (ACHN renal) was > 100 µM. It also gave a GI50 (A498 renal) of 0.975 µM, a GI50 (HS 578T breast) of 1.14 µM and a GI50 (SK-MEL-2 melanoma) of 3.01 µM. For the same compound, the TGI (SK-MEL-2 melanoma) was > 100 µM, the GI50 (MDA-MB-435) was 0.263 µM and the TGI (MDA-MB-435) was 0.79 µM. The GI50 (RPMI-8226 leukemia) was 1.36 µM, the TGI (RPMI-8226 leukemia) was > 63.8 µM and the GI50 (LOX IMVI melanoma) was 1.85 µM. For the same compound, the TGI (LOX IMVI melanoma) was > 100 µM, the GI50 (SNB-19 CNS) was 4.23 µM and the TGI (SNB-19 CNS) was > 100 µM. The GI50 (CAKI-1 renal) was 4.23 µM, the TGI (CAKI-1 renal) was > 100 µM and the GI50 (786-0 renal) was 5.16 µM. The TGI (786-0 renal) was > 100 µM, the GI50 (COLO 205 colon) was 1.21 µM and the TGI (COLO 205 colon) was > 31.7 µM. The GI50 (NCI/ADR-RES ovarian) was 2.99 µM, the TGI (NCI/ADR-RES ovarian) was > 100 µM and the GI50 (RXF 393 renal) was 0.916 µM. The TGI (RXF 393 renal) was 3.46 µM, the GI50 (OVCAR-8 ovarian) was 4.03 µM and the TGI (OVCAR-8 ovarian) was > 100 µM. The GI50 (SR leukemia) was 0.534 µM, the TGI (SR leukemia) was > 100 µM and the GI50 (MALME-3M melanoma) was 4.54 µM. The TGI (MALME-3M melanoma) was > 100 µM, the GI50 (UACC-62 melanoma) was 3.27 µM and the TGI (UACC-62 melanoma) was > 100 µM. For the same compound, the GI50 (SF-268 CNS) was 12.5 µM, the TGI (SF-268 CNS) was > 100 µM and the GI50 (OVCAR-5 ovarian) was 2.36 µM. The TGI (OVCAR-5 ovarian) was > 100 µM, the GI50 (MDA-MB-231 breast) was 2.66 µM and the TGI (MDA-MB-231 breast) was > 100 µM. For the same compound, the GI50 (HL-60(TB) leukemia) was 1.24 µM, the TGI (HL-60(TB) leukemia) was 5.7 µM and the GI50 (NCI-H226 lung) was 9.17 µM. The TGI (NCI-H226 lung) was > 100 µM, the GI50 (HCT-15 colon) was 0.634 µM and the TGI (HCT-15 colon) was > 100 µM. It also gave a GI50 (SF-295 CNS) of 2.34 µM, a TGI (SF-295 CNS) of 71.2 µM and a GI50 (OVCAR-4 ovarian) of 21.3 µM. For the same compound, the TGI (OVCAR-4 ovarian) was > 100 µM, the GI50 (EKVX NSCLC) was 2.4 µM and the TGI (EKVX NSCLC) was > 100 µM. It also gave a GI50 (BT-549 breast) of 1.15 µM, a TGI (BT-549 breast) of 8.4 µM and a GI50 (CCRF-CEM leukemia) of 0.909 µM. The TGI (CCRF-CEM leukemia) was > 100 µM, the GI50 (KM12 colon) was 1.21 µM and the TGI (KM12 colon) was > 100 µM. For the same compound, the GI50 (U251 CNS) was 2.9 µM, the TGI (U251 CNS) was > 100 µM and the GI50 (NCI-H460 lung) was 3.6 µM. The TGI (NCI-H460 lung) was > 100 µM, the GI50 (SF-539 CNS) was 2.79 µM and the TGI (SF-539 CNS) was 13.6 µM. For the same compound, the GI50 (SK-MEL-28 melanoma) was 9.29 µM, the TGI (SK-MEL-28 melanoma) was > 100 µM and the GI50 (SW-620 colon) was 1.25 µM. The TGI (SW-620 colon) was > 100 µM, the GI50 (NCI-H23 lung) was 0.686 µM and the TGI (NCI-H23 lung) was > 100 µM. For the same compound, the GI50 (OVCAR-3 ovarian) was 3.44 µM, the TGI (OVCAR-3 ovarian) was > 100 µM and the GI50 (DU-145 prostate) was 2.04 µM. The TGI (DU-145 prostate) was > 100 µM, the GI50 (HOP-92 NSCLC) was 1.3 µM and the GI50 (SN12C renal) was 1.95 µM. The TGI (SN12C renal) was > 100 µM, the GI50 (MOLT-4 leukemia) was 1.21 µM and the TGI (MOLT-4 leukemia) was > 100 µM. The GI50 (K-562 leukemia) was 0.406 µM, the TGI (K-562 leukemia) was > 100 µM and the GI50 (T-47D breast) was 6.72 µM. For the same compound, the TGI (T-47D breast) was > 100 µM, the GI50 (IGROV1 ovarian) was 1.31 µM and the TGI (IGROV1 ovarian) was > 100 µM. For the same compound, the GI50 (HOP-62 NSCLC) was 6.14 µM, the TGI (HOP-62 NSCLC) was > 100 µM and the GI50 (SNB-75 CNS) was 0.576 µM. The TGI (SNB-75 CNS) was 9.82 µM, the GI50 (HCC-2998 colon) was 2.71 µM and the TGI (HCC-2998 colon) was > 100 µM. The GI50 (PC-3 prostate) was 3.86 µM, the TGI (PC-3 prostate) was > 100 µM and the GI50 (HT29 colon) was 2.46 µM. For the same compound, the TGI (HT29 colon) was > 100 µM, the GI50 (M14 melanoma) was 2.04 µM and the TGI (M14 melanoma) was > 100 µM. The GI50 (MCF7 breast) was 0.674 µM and the TGI (MCF7 breast) was > 100 µM.
